Biological target: T1, human PI3Kβ (Homo sapiens, UniProt P42338)
T1 construct: made in house
Experiment: Biochemical PI3Kbeta (KinaseGlo luminescent kinase assay)
Conditions: 1 μM ATP, mean of n measurements, read-out: PI3Kb/ IC50
Experimental: Test compounds were dissolved in DMSO (10 mM) and transferred into 1.4 mL flat bottom or V-shaped Matrix tubes carrying a unique 2D matrix chip by individual Novartis compound hubs. The numbers of these chips were distinctively linked to Novartis Pharma Numbers. The stock solutions were stored at −20° C. if not used immediately. For the test procedure the vials were defrosted and identified by a scanner whereby a working sheet was generated that guided the subsequent working steps.
Compounds were either manually diluted in DMSO for individual experiments (96 wells enabling 10 cpds at 8 (single points) concentrations) as described in or prepared as described below if tested for profiling in 384-wells. This format enabled the assay of maximally 40 individual test compounds at 8 concentrations (single points) including 4 reference compounds. The dilution protocol included the production of “pre-dilution plates”, “master plates” and “assay plates”.
96 polypropylene well plates were used as pre-dilution plates. A total of 4 pre-dilution plates were prepared including 10 test compounds each on the plate positions A1-A10, one standard compound at A11 and one DMSO control at A12. Programs have been written to run these pipetting steps on the HamiltonSTAR robots.
Identical “assay plates” were then prepared by pipetting 50 nL each of compound dilutions of the “master plates” into 384-well “assay plates”. The compounds were mixed with 4.5 μL of assays components plus 4.5 μL enzyme corresponding to a 1:181 dilution enabling the final concentration of 10, 3.0, 1.0, 0.3, 0.1, 0.03, 0.01 and 0.003 μM, respectively. The preparation of the “master plates” was handled by the Matrix PlateMate Plus robot and replication of “assay plates” by the HummingBird robot.
Catalytically active human PI3Kα, PI3Kβ, PI3Kδ, and mTOR were cloned, expressed and purified as described (Maira S M, Stauffer F, Brueggen J, Furet P, Schnell C, Fritsch C, Brachmann S, Chène P, de Pover A, Schoemaker K, Fabbro D, Gabriel D, Simonen M, Murphy L, Finan P, Sellers W, García-Echeverría C (2008), Mol Cancer Ther. 7:1851-63 and Maira S M, Pecchi S, Brueggen J, Huh K, Schnell C, Fritsch C, Nagel T, Wiesmann M, Brachmann S, Dorsch M, Chène P, Schoemaker K, De Pover A, Menezes D, Fabbro D, Sellers W, García-Echeverría C, Voliva C F (2011), Mol. Cancer Ther. accepted).
The luminescence-based ATP detection reagent KinaseGlo was obtained from Promega, (Cat. No. V6714, Lot No. 236161) through Catalys, Wallisellen, Switzerland. (L-alpha-phosphatidylinositol (PI), Liver, Bovine) were obtained from Avanti Polar Lipid (Cat. No. 840042C, Lot#LPI-274), Phosphatidylinositol-4,5-bisphosphate (PIP(4,5)2 (Avanti, Cat. No. 840046×) or L-α-phosphatidylinositol (PI) was obtained from Avanti Polar Lipid (Cat. No. 840042C, Lot#LPI-274). L-α-Phosphatidylserine (PS) was from Avanti Polar Lipid (Cat. No. 840032C), n-OctylGlucoside Avanti Polar Lipid (Cat. No. 10634425001). Luminescence is a well established readout to determine ATP concentrations and can thus be used to follow the activity of many kinases regardless of their substrate. The Kinase Glo Luminescent Kinase Assay (Promega, Madison/Wis., USA) is a homogeneous HTS method of measuring kinase activity by quantifying the amount of ATP remaining in solution following a kinase reaction.
50 nL of compound dilutions were dispensed onto black 384-well low volume Non Binding Styrene (NBS) plates (Costar Cat. No. NBS#3676) as described in section 8.2. L-α-phosphatidylinositol (PI), provided as 10 mg/ml solution in methanol, was transferred into a glass tube and dried under nitrogen beam. It was then resuspended in 3% OctylGlucoside by vortexing and stored at 4° C. 5 μL of a mix of PI/OG with the PI3Ka and Pi3Kb subtypes were added. Kinase reactions were started by addition of 5 μl of ATP-mix containing in a final volume 10 μL 10 mM TRIS-HCl pH 7.5, 3 mM MgCl2, 50 mM NaCl, 0.05% CHAPS, 1 mM DTT and 1 μM ATP, and occurred at room temperature.

T1 sequence (P42338 2-1070 limits assumed): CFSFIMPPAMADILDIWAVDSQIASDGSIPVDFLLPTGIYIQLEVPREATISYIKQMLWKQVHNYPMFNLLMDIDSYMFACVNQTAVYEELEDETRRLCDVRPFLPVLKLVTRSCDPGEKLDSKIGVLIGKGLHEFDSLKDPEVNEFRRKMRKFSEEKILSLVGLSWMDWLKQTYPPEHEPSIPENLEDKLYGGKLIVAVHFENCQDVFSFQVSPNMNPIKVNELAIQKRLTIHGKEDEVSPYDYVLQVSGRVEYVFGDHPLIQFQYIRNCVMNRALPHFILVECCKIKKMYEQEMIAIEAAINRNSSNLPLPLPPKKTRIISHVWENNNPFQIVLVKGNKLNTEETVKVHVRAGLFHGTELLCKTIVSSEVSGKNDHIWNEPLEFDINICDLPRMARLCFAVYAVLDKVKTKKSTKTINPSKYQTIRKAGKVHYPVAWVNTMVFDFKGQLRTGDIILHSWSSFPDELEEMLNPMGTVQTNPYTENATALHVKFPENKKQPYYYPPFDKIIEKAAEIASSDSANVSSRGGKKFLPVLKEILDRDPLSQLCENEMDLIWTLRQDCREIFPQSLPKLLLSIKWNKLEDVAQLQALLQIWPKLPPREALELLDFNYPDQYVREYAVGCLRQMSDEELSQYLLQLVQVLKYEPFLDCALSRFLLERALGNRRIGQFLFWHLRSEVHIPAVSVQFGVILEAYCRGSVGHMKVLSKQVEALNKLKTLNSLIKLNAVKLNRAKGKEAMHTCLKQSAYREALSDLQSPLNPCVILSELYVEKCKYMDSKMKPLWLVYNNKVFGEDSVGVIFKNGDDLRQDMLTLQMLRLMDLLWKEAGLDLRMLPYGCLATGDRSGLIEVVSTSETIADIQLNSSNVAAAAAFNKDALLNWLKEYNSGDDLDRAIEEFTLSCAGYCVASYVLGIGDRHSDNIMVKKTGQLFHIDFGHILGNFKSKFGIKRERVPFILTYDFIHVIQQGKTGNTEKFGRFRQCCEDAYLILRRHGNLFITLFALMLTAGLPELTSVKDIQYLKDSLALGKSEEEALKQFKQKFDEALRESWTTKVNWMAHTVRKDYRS

Row | IC50 [nM] | SMILES
1 | 124 | C[C@H]1C(CC(C)(C)O)OC(=O)N1c1cc(-c2cnc(N)nc2C(F)(F)F)nc(N2CCOCC2)n1 (mixture of isomers) [Example 26, (4S,5R)- and (4S,5S)-3-(2′-amino-2-morpholino-4′-(trifluoromethyl)-[4,5′-bipyrimidin]-6-yl)-5-(2-hydroxy-2-methylpropyl)-4-methyloxazolidin-2-one]
2 | 18 | CC1(CO)COC(=O)N1c1cc(-c2cnc(N)nc2C(F)(F)F)nc(N2CCOCC2)n1 (racemic) [Example 3, 3-(2′-amino-2-morpholino-4′-(trifluoromethyl)-4,5′-bipyrimidin-6-yl)-4-(hydroxymethyl)-4-methyloxazolidin-2-one]
3 | 48 | Nc1ncc(-c2cc(N3C(=O)O[C@@H]4[C@@H](O)CC[C@@H]43)nc(N3CCOCC3)n2)c(C(F)(F)F)n1 (racemic) [Example 22, (3aR*,6R*,6aR*)-3-(2′-Amino-2-morpholino-4′-(trifluoromethyl)-[4,5′-bipyrimidin]-6-yl)-6-hydroxyhexahydro-2H-cyclopenta[d]oxazol-2-one]
4 | 86 | Nc1ncc(-c2cc(N3C(=O)OC4C(O)CCC43)nc(N3CCOCC3)n2)c(C(F)(F)F)n1 (single isomer, unassigned) [Example 22A]
5 | 58 | Nc1ncc(-c2cc(N3C(=O)OC4C(O)CCC43)nc(N3CCOCC3)n2)c(C(F)(F)F)n1 (single isomer, unassigned) [Example 22B]
6 | 16 | C[C@@H](O)C[C@H]1OC(=O)N(c2cc(-c3cnc(N)nc3C(F)(F)F)nc(N3CCOCC3)n2)[C@H]1C (single isomer, unassigned) [Example 24]
7 | 11 | C[C@H](O)CC1OC(=O)N(c2cc(-c3cnc(N)nc3C(F)(F)F)nc(N3CCOCC3)n2)[C@H]1C (single isomer, unassigned) [Example 25]
8 | 6 | C[C@H]1COC(=O)N1c1cc(-c2cnc(N)nc2C(F)(F)F)nc(N2CCOCC2)n1 [Example 1, (S)-3-(2′-Amino-2-morpholin-4-yl-4′-trifluoromethyl-[4,5′]bipyrimidinyl-6-yl)-4-methyl-oxazolidin-2-one]
9 | 20 | CC1(C)OC(=O)N(c2cc(-c3cnc(N)nc3C(F)(F)F)nc(N3CCOCC3)n2)[C@H]1CO [Example 2, (S)-3-(2′-Amino-2-morpholin-4-yl-4′-trifluoromethyl-[4,5′]bipyrimidinyl-6-yl)-4-hydroxymethyl-5,5-dimethyl-oxazolidin-2-one]
10 | 7 | Nc1ncc(-c2cc(N3C(=O)O[C@H]4CCCC[C@@H]43)nc(N3CCOCC3)n2)c(C(F)(F)F)n1 [Example 4, (3aS,7aS)-3-(2′-Amino-2-morpholin-4-yl-4′-trifluoromethyl-[4,5′]bipyrimidinyl-6-yl)-hexahydro-benzooxazol-2-one]
11 | 11 | COC[C@H]1COC(=O)N1c1cc(-c2cnc(N)nc2C(F)(F)F)nc(N2CCOCC2)n1 [Example 5, (S)-3-(2′-Amino-2-morpholin-4-yl-4′-trifluoromethyl-[4,5′]bipyrimidinyl-6-yl)-4-methoxymethyl-oxazolidin-2-one]
12 | 7 | C[C@@H]1OC(=O)N(c2cc(-c3cnc(N)nc3C(F)(F)F)nc(N3CCOCC3)n2)[C@H]1CO [Example 6]
13 | 4 | [2H]C1([2H])OC([2H])([2H])C([2H])([2H])N(c2nc(-c3cnc(N)nc3C(F)(F)F)cc(N3C(=O)O[C@H](C)[C@@H]3CO)n2)C1([2H])[2H] [Example 8]
14 | 41 | Nc1ncc(-c2cc(N3C(=O)OC[C@@H]3CCO)nc(N3CCOCC3)n2)c(C(F)(F)F)n1 [Example 9, (S)-3-(2′-Amino-2-morpholin-4-yl-4′-trifluoromethyl-[4,5′]bipyrimidinyl-6-yl)-4-(2-hydroxy-ethyl)-oxazolidin-2-one]
15 | 38 | C[C@H]1OC(=O)N(c2cc(-c3cnc(N)nc3C(F)(F)F)nc(N3CCOC[C@@H]3C)n2)[C@H]1CO [Example 10, (4S,5R)-3-[2′-Amino-2-((S)-3-methyl-morpholin-4-yl)-4′-trifluoromethyl-[4,5′]bipyrimidinyl-6-yl]-4-hydroxymethyl-5-methyl-oxazolidin-2-one]
16 | 12 | Nc1ncc(-c2cc(N3CCOC3=O)nc(N3CCOCC3)n2)c(C(F)(F)F)n1 [Example 11, 3-(2′-Amino-2-morpholin-4-yl-4′-trifluoromethyl-[4,5′]bipyrimidinyl-6-yl)-oxazolidin-2-one, reference compound]
17 | 49 | C[C@H]1OC(=O)N(c2cc(-c3cnc(N)nc3C(F)(F)F)nc(N3CCOCC3)n2)[C@H]1COC=O [Example 12, Formic acid (4S,5R)-3-(2′-amino-2-morpholin-4-yl-4′-trifluoromethyl-[4,5′]bipyrimidinyl-6-yl)-5-methyl-2-oxo-oxazolidin-4-ylmethyl ester]
18 | 146 | C[C@H]1COCCN1c1nc(-c2cnc(N)nc2C(F)(F)F)cc(N2C(=O)OC[C@@H]2C)n1 [Example 13, (S)-3-[2′-Amino-2-((S)-3-methyl-morpholin-4-yl)-4′-trifluoromethyl-[4,5′]bipyrimidinyl-6-yl]-4-methyl-oxazolidin-2-one]
19 | 18 | Nc1ncc(-c2cc(N3C[C@@H](CO)OC3=O)nc(N3CCOCC3)n2)c(C(F)(F)F)n1 [Example 14, (S)-3-(2′-Amino-2-morpholin-4-yl-4′-trifluoromethyl-[4,5′]bipyrimidinyl-6-yl)-5-hydroxymethyl-oxazolidin-2-one]
20 | 21 | C[C@H]1[C@H](CO)OC(=O)N1c1cc(-c2cnc(N)nc2C(F)(F)F)nc(N2CCOCC2)n1 [Example 15, (4S,5R)-3-(2′-Amino-2-morpholin-4-yl-4′-trifluoromethyl-[4,5′]bipyrimidinyl-6-yl)-5-hydroxymethyl-4-methyl-oxazolidin-2-one]
21 | 20 | C[C@H]1CN(c2cc(-c3cnc(N)nc3C(F)(F)F)nc(N3CCOCC3)n2)C(=O)O1 [Example 16, (S)-3-(2′-Amino-2-morpholin-4-yl-4′-trifluoromethyl-[4,5′]bipyrimidinyl-6-yl)-5-methyl-oxazolidin-2-one]
22 | 7 | [2H]C1([2H])OC([2H])([2H])C([2H])([2H])N(c2nc(-c3cnc(N)nc3C(F)(F)F)cc(N3C(=O)OC[C@@H]3C)n2)C1([2H])[2H] [Example 17, (S)-3-(2′-amino-2-D8-morpholino-4′-(trifluoromethyl)-[4,5′-bipyrimidin]-6-yl)-4-methyloxazolidin-2-one]
23 | 4 | C[C@H]1OC(=O)N(c2cc(-c3cnc(N)nc3C(F)(F)F)nc(N3CCOCC3)n2)[C@H]1CO [Example 18, (4S,5R)-3-(2′-Amino-2-morpholin-4-yl-4′-trifluoromethyl-[4,5′]bipyrimidinyl-6-yl)-4-hydroxymethyl-5-methyl-oxazolidin-2-one]
24 | 5 | C[C@H]1[C@@H](CO)OC(=O)N1c1cc(-c2cnc(N)nc2C(F)(F)F)nc(N2CCOCC2)n1 [Example 19, (4S,5S)-3-(2′-Amino-2-morpholin-4-yl-4′-trifluoromethyl-[4,5′]bipyrimidinyl-6-yl)-5-hydroxymethyl-4-methyl-oxazolidin-2-one]
25 | 11 | Nc1ncc(-c2cc(N3C[C@H](CO)OC3=O)nc(N3CCOCC3)n2)c(C(F)(F)F)n1 [Example 20, (R)-3-(2′-Amino-2-morpholin-4-yl-4′-trifluoromethyl-[4,5′]bipyrimidinyl-6-yl)-5-hydroxymethyl-oxazolidin-2-one]

Reference: patent US8865894B2, “Oxazolidin-2-one compounds and uses thereof” (Novartis AG, priority 2012, dated 2014)
